{"source": "PubChem BioAssay AID1963986", "about": "(Molecular Pharmacology Branch, DTP, NCI, 2024)", "tested_on": "171881-019-R-J1-PDC tumor spheroid viability", "assay": "Anticancer human tumor 171881-019-R-J1-PDC patient-derived invasive breast carcinoma cell line growth inhibition [PI3K]", "settings": "spheroids with HUVEC and MSC; for IC50: curve of first compound; for viability, T/C: stronger effect = lower value", "method_in_brief": "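Targeted small molecules plus PI3K inhibitors, half-log dose series from Cmax (default top 10 microM), were applied to heterotypic spheroids of cancer cells with HUVEC and MSCs. Viability indicated growth inhibition.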", "data": [{"compound": "CC(C)NCC(C(=O)N1CCN(c2ncnc3c2C(C)CC3O)CC1)c1ccc(Cl)cc1", "note": "(configuration not stated) + COc1c(OCCCN2CCOCC2)ccc2c3n(c(=NC(=O)c4cnc(N)nc4)nc12)CCN3;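 further: spheroids exposed to compound for 7 days before viability read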;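 on viability, T/C: 100% = DMSO vehicle-treated spheroids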", "values": [{"measurement": "IC50", "setting": "second compound 0.00316 µM", "result": 200, "unit": "nM"}, {"measurement": "IC50", "setting": "second compound 0.01 µM", "result": "< 31.6", "unit": "nM"}, {"measurement": "IC50", "setting": "second compound 0.0316 µM", "result": "< 31.6", "unit": "nM"}, {"measurement": "IC50", "setting": "second compound 0.1 µM", "result": "< 31.6", "unit": "nM"}, {"measurement": "IC50", "setting": "second compound 0.316 µM", "result": "< 31.6", "unit": "nM"}, {"measurement": "IC50", "setting": "second compound 1 µM", "result": "< 31.6", "unit": "nM"}, {"measurement": "viability, T/C", "setting": "second compound 0.00316 µM, first compound 0.0316 µM", "result": 63.8, "unit": "%"}, {"measurement": "viability, T/C", "setting": "second compound 0.00316 µM, first compound 0.1 µM", "result": 57, "unit": "%"}, {"measurement": "viability, T/C", "setting": "second compound 0.00316 µM, first compound 0.316 µM", "result": 44.8, "unit": "%"}, {"measurement": "viability, T/C", "setting": "second compound 0.00316 µM, first compound 1 µM", "result": 27.6, "unit": "%"}, {"measurement": "viability, T/C", "setting": "second compound 0.00316 µM, first compound 3.16 µM", "result": 11.6, "unit": "%"}, {"measurement": "viability, T/C", "setting": "second compound 0.00316 µM, first compound 10 µM", "result": 8.17, "unit": "%"}, {"measurement": "viability, T/C", "setting": "second compound 0.01 µM, first compound 0.0316 µM", "result": 48.5, "unit": "%"}, {"measurement": "viability, T/C", "setting": "second compound 0.01 µM, first compound 0.1 µM", "result": 47, "unit": "%"}, {"measurement": "viability, T/C", "setting": "second compound 0.01 µM, first compound 0.316 µM", "result": 36.4, "unit": "%"}, {"measurement": "viability, T/C", "setting": "second compound 0.01 µM, first compound 1 µM", "result": 24.1, "unit": "%"}, {"measurement": "viability, T/C", "setting": "second compound 0.01 µM, first compound 3.16 µM", "result": 12.4, "unit": "%"}, {"measurement": "viability, T/C", "setting": "second compound 0.01 µM, first compound 10 µM", "result": 8.98, "unit": "%"}, {"measurement": "viability, T/C", "setting": "second compound 0.0316 µM, first compound 0.0316 µM", "result": 25, "unit": "%"}, {"measurement": "viability, T/C", "setting": "second compound 0.0316 µM, first compound 0.1 µM", "result": 24.9, "unit": "%"}, {"measurement": "viability, T/C", "setting": "second compound 0.0316 µM, first compound 0.316 µM", "result": 25.8, "unit": "%"}, {"measurement": "viability, T/C", "setting": "second compound 0.0316 µM, first compound 1 µM", "result": 14.4, "unit": "%"}, {"measurement": "viability, T/C", "setting": "second compound 0.0316 µM, first compound 3.16 µM", "result": 8.88, "unit": "%"}, {"measurement": "viability, T/C", "setting": "second compound 0.0316 µM, first compound 10 µM", "result": 5.68, "unit": "%"}, {"measurement": "viability, T/C", "setting": "second compound 0.1 µM, first compound 0.0316 µM", "result": 7.43, "unit": "%"}, {"measurement": "viability, T/C", "setting": "second compound 0.1 µM, first compound 0.1 µM", "result": 8.22, "unit": "%"}, {"measurement": "viability, T/C", "setting": "second compound 0.1 µM, first compound 0.316 µM", "result": 8.03, "unit": "%"}, {"measurement": "viability, T/C", "setting": "second compound 0.1 µM, first compound 1 µM", "result": 6.41, "unit": "%"}, {"measurement": "viability, T/C", "setting": "second compound 0.1 µM, first compound 3.16 µM", "result": 5.14, "unit": "%"}, {"measurement": "viability, T/C", "setting": "second compound 0.1 µM, first compound 10 µM", "result": 3.1, "unit": "%"}, {"measurement": "viability, T/C", "setting": "second compound 0.316 µM, first compound 0.0316 µM", "result": 1.9, "unit": "%"}, {"measurement": "viability, T/C", "setting": "second compound 0.316 µM, first compound 0.1 µM", "result": 2.03, "unit": "%"}, {"measurement": "viability, T/C", "setting": "second compound 0.316 µM, first compound 0.316 µM", "result": 2.26, "unit": "%"}, {"measurement": "viability, T/C", "setting": "second compound 0.316 µM, first compound 1 µM", "result": 2.16, "unit": "%"}, {"measurement": "viability, T/C", "setting": "second compound 0.316 µM, first compound 3.16 µM", "result": 1.57, "unit": "%"}, {"measurement": "viability, T/C", "setting": "second compound 0.316 µM, first compound 10 µM", "result": 1.13, "unit": "%"}, {"measurement": "viability, T/C", "setting": "second compound 1 µM, first compound 0.0316 µM", "result": 0.99, "unit": "%"}, {"measurement": "viability, T/C", "setting": "second compound 1 µM, first compound 0.1 µM", "result": 1.4, "unit": "%"}, {"measurement": "viability, T/C", "setting": "second compound 1 µM, first compound 0.316 µM", "result": 1.49, "unit": "%"}, {"measurement": "viability, T/C", "setting": "second compound 1 µM, first compound 1 µM", "result": 1.35, "unit": "%"}, {"measurement": "viability, T/C", "setting": "second compound 1 µM, first compound 3.16 µM", "result": 1.05, "unit": "%"}, {"measurement": "viability, T/C", "setting": "second compound 1 µM, first compound 10 µM", "result": 0.68, "unit": "%"}]}]}
